Results from PMC11272826, “Metabolism of alcohol ethoxylates (AEs) in rat, hamster, and human hepatocytes and liver S9: a pilot study for metabolic stability, metabolic pathway, and metabolites identification in vitro and in silico” (Archives of Toxicology, 2024).

Experiments:
[1] = Metabolic stability in liver S9 fraction (disappearance, half-life, CLint); details: for Relative LC/MS peak area: with cofactors, 60 min
Description: (§1) Calibration curves were generated using an external standard.
Intrinsic in vitro clearance was calculated as follows: […]

[2] = as above; details: for half-life at 1 µM / microsomal CLint at 1 µM / microsomal CLint at 10 µM / half-life at 10 µM: human; for half-life at 10 µM: pooled liver S9, pH 7.4, Half-lives t1/2, Liver S9, 10 μM
Description: The metabolic stability assay was performed in a 48-well plate format (duplicate with cofactors and single without cofactors).
Each incubation contained test compound (final concentration of 1 or 10 µM), liver S9 (1.5 mg/ml protein content), Cofactors (1 mM NADPH + 1 mM UDPGA + 0.2 mM PAPS), MgCl2 (2 mM), and potassium phosphate buffer (100 mM at pH 7.4). […] The incubation was carried out at 37 °C for 60 min with and without cofactors. […] The samples were collected and stored at − 20 °C for further analysis.
(§2) The in vitro metabolism of the five individual homologue AEs (i.e. C8EO4, C10EO5, C12EO4, C16EO8, and C18EO3) was analyzed by liquid chromatography–mass spectrometry (LC–MS). The UPLC-Q-Exactive Orbitrap MS system consisted of a Thermo Vanquish Horizon UHPLC with an autosampler, vacuum degasser, photodiode array (PDA) detector (210–500 nm), and column oven coupled to a Q-Exactive Orbitrap Focus mass spectrometer (Thermo Fisher Scientific, Waltham, MA, USA). The analytical column used was a Waters Acquity BEH C8 2.1 × 50 mm with 1.7 particle size (Waters Corp, Milford, MA, USA). The temperature of the column oven was 40 °C, and the injection volume was 4 μl. The aqueous eluent (A) was 0.1% formic acid (B) was acetonitrile. […] The eluent flow rate was 0.5 ml/min and the flow was directed to the MS through a PDA detector. The data acquisition was performed using positive Electrospray Ionization (ESI+) polarity with a capillary voltage of 3000 V. Capillary temperature was 320 °C and auxiliary gas temperature was 500 °C. The mass spectrometer was operated in the data-dependent MS2 mode, which acquires full-scan MS and MS/MS fragment ion data in the same run. Scan was performed with a resolution of 35,000 (full width at half maximum at m/z 200), while an Automated Gain Control target of a million ions, maximum injection time of 100 ms, and a scan range of 100–1000 m/z were used. […] Nitrogen was used as a sheath gas with 50 units, auxiliary gas with 10 units and as a sweep gas with 5 units. Ion chromatograms were extracted from the total ion chromatograms using calculated monoisotopic accurate masses with 5 mDa window. Calibration curves were generated using an external standard. The data were processed with Thermo Xcalibur 4.1.31.9 software.
(§3) The first-order rate constants k (min^−1) of the metabolism were obtained from the slope of time versus ln (% remaining) plots using Excel software. All time points (log-scale) were used in fitting the rate constant k based on visual inspection of the curves.
(§4) The in vitro half-life (t1/2) of the test compound(s) is defined as: t1/2=ln2/k
(§5) CLint,inc = k*V/(M), where V is the volume of the incubation and M is the number of cells or amount of S9 protein in the incubation.

[3] = system: female Colworth Wistar rats; design: method as in Unilever [1978]; details: 14C-labelled, oral, rat, ref Unilever [1978], cited from earlier work
[4] = Metabolite profiling by LC-MS in liver S9; details: for Percentage of the total peak area, Liver S9 with cofactors, Hamster / Percentage of the total peak area, Liver S9 with cofactors, Human / Percentage of the total peak area, Liver S9 with cofactors, Rat / Percentage of the total peak area, Liver S9 without cofactors, Hamster / Percentage of the total peak area, Liver S9 without cofactors, Human / Percentage of the total peak area, Liver S9 without cofactors, Rat: 60 min
From the text: as §1

hamster hepatocytes [5] = experiment: Metabolite profiling by LC-MS in hepatocytes; details: for Number of metabolites detected: hamster hepatocytes; for Percentage of the total peak area, Hepatocytes, Hamster: 120 min
Description: (§6) The hepatocytes were thawed and re-suspended in Celsis InVitro KHB medium (pH 7.4). […] The samples were collected and stored at − 20 °C for further analysis.
as §2

rat hepatocytes [6] = experiment: Metabolite profiling by LC-MS in hepatocytes; details: for Percentage of the total peak area, Hepatocytes, Rat: 120 min; for Number of metabolites detected: rat hepatocytes
Description: as §6, §2

human hepatocytes [7] = experiment: Metabolite profiling by LC-MS in hepatocytes; details: for Number of metabolites detected: human hepatocytes; for Percentage of the total peak area, Hepatocytes, Human: 120 min
Description: as §6, §2

[8] = Metabolite profiling by LC-MS in buffer (incubation without cells); details: 120 min
Description: as §6, §2

rat hepatocytes [9] = experiment: Metabolic stability in cryopreserved hepatocytes (disappearance, half-life, CLint); details: rat hepatocytes
Description: (§7) The metabolic stability assay was performed in a 48-well plate format (duplicate with cells and single without cells).
as §6
(§8) The UPLC-Q-Exactive Orbitrap MS system consisted of a Thermo Vanquish Horizon UHPLC with an autosampler, vacuum degasser, photodiode array (PDA) detector (210–500 nm), and column oven coupled to a Q-Exactive Orbitrap Focus mass spectrometer (Thermo Fisher Scientific, Waltham, MA, USA). The analytical column used was a Waters Acquity BEH C8 2.1 × 50 mm with 1.7 particle size (Waters Corp, Milford, MA, USA). The temperature of the column oven was 40 °C, and the injection volume was 4 μl. The aqueous eluent (A) was 0.1% formic acid (B) was acetonitrile. […] The eluent flow rate was 0.5 ml/min and the flow was directed to the MS through a PDA detector. The data acquisition was performed using positive Electrospray Ionization (ESI+) polarity with a capillary voltage of 3000 V. Capillary temperature was 320 °C and auxiliary gas temperature was 500 °C. The mass spectrometer was operated in the data-dependent MS2 mode, which acquires full-scan MS and MS/MS fragment ion data in the same run. Scan was performed with a resolution of 35,000 (full width at half maximum at m/z 200), while an Automated Gain Control target of a million ions, maximum injection time of 100 ms, and a scan range of 100–1000 m/z were used. […] Nitrogen was used as a sheath gas with 50 units, auxiliary gas with 10 units and as a sweep gas with 5 units. Ion chromatograms were extracted from the total ion chromatograms using calculated monoisotopic accurate masses with 5 mDa window. Calibration curves were generated using an external standard. The data were processed with Thermo Xcalibur 4.1.31.9 software.
as §3, §4, §5

[10] = as above; details: Sprague Dawley, rat, pooled cryopreserved hepatocytes, pH 7.4
Description: as §7, §6, §8, §3, §4, §5

human hepatocytes [11] = experiment: as above; details: human hepatocytes
Description: as §7, §6, §8, §3, §4, §5

[12] = as above; details: human, pooled cryopreserved hepatocytes, pH 7.4
Description: as §7, §6, §8, §3, §4, §5

hamster hepatocytes [13] = experiment: as above; details: hamster hepatocytes
Description: as §7, §6, §8, §3, §4, §5

[14] = as above; details: Syrian, hamster, pooled cryopreserved hepatocytes, pH 7.4
Description: as §7, §6, §8, §3, §4, §5

[15] = Sprague-Dawley, rat, s9, pH 7.4
[16] = metabolite profile of C18EO3, 10 µM incubation
[17] = Sprague-Dawley, rat, pooled liver S9, pH 7.4
[18] = Syrian, hamster, pooled liver S9, pH 7.4
[19] = pooled liver S9, pH 7.4, Half-lives t1/2, Liver S9, 1 μM
[20] = metabolite profile of C8EO4, 10 µM incubation
[21] = metabolite profile of C12EO4, 10 µM incubation

Cc1ncc2n1-c1ccc(Cl)cc1C(c1ccccc1F)=NC2 [midazolam, Midazolam, reference compound]
half-life at 1 µM [1, 15]: 11.8 min
microsomal CLint at 1 µM [1, 15]: 39.1 µL/min/mg
half-life at 1 µM ([1]; Syrian, hamster, s9, pH 7.4): < 6.3 min
microsomal CLint at 1 µM ([1]; Syrian, hamster, s9, pH 7.4): > 75 µL/min/mg
half-life at 1 µM ([2]; s9, pH 7.4): < 6.3 min
microsomal CLint at 1 µM ([2]; s9, pH 7.4): > 75 µL/min/mg

CCCCCCCCCCCCOCCOCCOCCO [C12EO3]
Total recovery in urine, feces, air, and carcass of the administered compound ([3]; 4 days): ~100%
14C in air [3]: about 10%

CCCCCCCCCCCCCCCCCCOCCOCCOCCO [C18EO3]
Number of metabolites detected ([4]; human liver S9): 11
Percentage of the total peak area, Liver S9 with cofactors, Hamster [4, 16]: 79.9%
Percentage of the total peak area, Liver S9 with cofactors, Human [4, 16]: 58.2%
Percentage of the total peak area, Liver S9 with cofactors, Rat [4, 16]: 90.3%
Percentage of the total peak area, Liver S9 without cofactors, Hamster [4, 16]: 100.0%
Percentage of the total peak area, Liver S9 without cofactors, Human [4, 16]: 100.0%
Percentage of the total peak area, Liver S9 without cofactors, Rat [4, 16]: 100.0%
Number of metabolites detected (hamster hepatocytes [5]): 4
Percentage of the total peak area, Hepatocytes, Hamster (hamster hepatocytes [5]; [16]): 97.5%
Percentage of the total peak area, Hepatocytes, Rat (rat hepatocytes [6]; [16]): 98.3%
Number of metabolites detected (rat hepatocytes [6]): 4
Number of metabolites detected (human hepatocytes [7]): 9
Percentage of the total peak area, Hepatocytes, Human (human hepatocytes [7]; [16]): 8.9%
half-life at 1 µM [1, 17]: 32 min
microsomal CLint at 1 µM [1, 17]: 14.6 µL/min/mg
half-life at 1 µM [1, 18]: 29 min
microsomal CLint at 1 µM [1, 18]: 16.2 µL/min/mg
microsomal CLint at 1 µM ([2]; pooled liver S9, pH 7.4): 15.9 µL/min/mg
half-life at 1 µM [2, 19]: ≥ 29 min

CCCCCCCCOCCOCCOCCOCCO [C8EO4]
Number of metabolites detected ([4]; hamster liver S9): 20
Number of metabolites detected ([4]; human liver S9): 17
Number of metabolites detected ([4]; rat liver S9): 16
Percentage of the total peak area, Hepatocytes, Buffer ([8]; metabolite profile of C8EO4, 10 µM incubation without cells): 99.8%
Initial concentration remaining after 120 min incubation (rat hepatocytes [9]; range over 1 and 10 µM): 0.1–3%
half-life at 1 µM [10]: 3.2 min
half-life at 10 µM [10]: 3.6 min
Number of metabolites detected (hamster hepatocytes [5]): 22
Percentage of the total peak area, Hepatocytes, Hamster (hamster hepatocytes [5]; [20]): 0.1%
Percentage of the total peak area, Hepatocytes, Rat (rat hepatocytes [6]; [20]): 0.1%
Number of metabolites detected (rat hepatocytes [6]): 20
Number of metabolites detected (human hepatocytes [7]): 21
Percentage of the total peak area, Hepatocytes, Human (human hepatocytes [7]; [20]): 0.1%
Initial concentration remaining after 120 min incubation (human hepatocytes [11]; range over 1 and 10 µM): 0.1–3%
half-life at 1 µM [12]: 12.9 min
half-life at 10 µM [12]: 12 min
Initial concentration remaining after 120 min incubation (hamster hepatocytes [13]; range over 1 and 10 µM): 0.1–3%
half-life at 1 µM [14]: 4.3 min
half-life at 10 µM [14]: 6.5 min
half-life at 1 µM [1, 17]: 37.8 min
half-life at 10 µM [1, 17]: 58.1 min
microsomal CLint at 1 µM [1, 17]: 12.2 µL/min/mg
microsomal CLint at 10 µM [1, 17]: 7.95 µL/min/mg
half-life at 1 µM [1, 18]: 7.7 min
half-life at 10 µM [1, 18]: 14.5 min
microsomal CLint at 1 µM [1, 18]: 59.7 µL/min/mg
microsomal CLint at 10 µM [1, 18]: 31.8 µL/min/mg
Initial concentration remaining after 60 min incubation ([1]; hamster liver S9, range over 1 and 10 µM): 1–6%
Initial concentration remaining after 60 min incubation ([1]; rat liver S9, range over 1 and 10 µM): 34–49%
Initial concentration remaining after 60 min incubation ([2]; human liver S9, range over 1 and 10 µM): 1–6%
microsomal CLint at 1 µM ([2]; pooled liver S9, pH 7.4): 39.2 µL/min/mg
microsomal CLint at 10 µM ([2]; pooled liver S9, pH 7.4): 33.6 µL/min/mg
half-life at 1 µM [2, 19]: 11.8 min
half-life at 10 µM [2]: 13.8 min

CCCCCCCCCCCCOCCOCCOCCOCCO [C12EO4]
Percentage of the total peak area, Liver S9 with cofactors, Hamster [4, 21]: 18.1%
Percentage of the total peak area, Liver S9 with cofactors, Human [4, 21]: 2.1%
Percentage of the total peak area, Liver S9 with cofactors, Rat [4, 21]: 2.0%
Percentage of the total peak area, Liver S9 without cofactors, Hamster [4, 21]: 98.4%
Percentage of the total peak area, Liver S9 without cofactors, Human [4, 21]: 98.8%
Percentage of the total peak area, Liver S9 without cofactors, Rat [4, 21]: 99.7%
Percentage of the total peak area, Hepatocytes, Buffer ([8]; metabolite profile of C12EO4, 10 µM incubation without cells): 79.1%
Relative LC/MS peak area (rat hepatocytes [9]; 10 μM, 120 min): 12%
half-life at 10 µM [10]: 8.9 min
Percentage of the total peak area, Hepatocytes, Hamster (hamster hepatocytes [5]; [21]): 13.2%
Percentage of the total peak area, Hepatocytes, Rat (rat hepatocytes [6]; [21]): 12.7%
Number of metabolites detected (human hepatocytes [7]): 28
Percentage of the total peak area, Hepatocytes, Human (human hepatocytes [7]; [21]): 12.5%
Relative LC/MS peak area (human hepatocytes [11]; 10 μM, 120 min): 40%
half-life at 10 µM [12]: 15 min
Relative LC/MS peak area (hamster hepatocytes [13]; 10 μM, 120 min): 11%
half-life at 1 µM [14]: 789 min
half-life at 10 µM [14]: 17 min
half-life at 1 µM [1, 17]: 26 min
half-life at 10 µM [1, 17]: 11 min
microsomal CLint at 1 µM [1, 17]: 17.5 µL/min/mg
microsomal CLint at 10 µM [1, 17]: 40.7 µL/min/mg
half-life at 10 µM [1, 18]: 26 min
microsomal CLint at 10 µM [1, 18]: 17.9 µL/min/mg
Relative LC/MS peak area ([1]; hamster liver S9, 10 μM): 24%
Relative LC/MS peak area ([1]; rat liver S9, 10 μM): 3%
Relative LC/MS peak area ([2]; human liver S9, 10 μM, with cofactors, 60 min): 3%
microsomal CLint at 10 µM ([2]; pooled liver S9, pH 7.4): 51.2 µL/min/mg
half-life at 10 µM [2]: 9 min
